Reference: ChEMBL document CHEMBL5523703, “Modulators for palmitoylation of proteins and small molecules” (Eur J Med Chem, 2024)
Counter-ions that a name gives are not always drawn. Blank lines part the entries; values can stand above or below the compound they belong to.

Columns and labels:
[1] = Half life in mouse by LC-MS/MS analysis; type: ADME; conditions: in vivo, route po
[2] = target: T1, Carnitine O-palmitoyltransferase 1, muscle isoform (Homo sapiens, UniProt Q92523); experiment: Inhibition of CPT1B (unknown origin)
T1 sequence (Q92523 whole entry): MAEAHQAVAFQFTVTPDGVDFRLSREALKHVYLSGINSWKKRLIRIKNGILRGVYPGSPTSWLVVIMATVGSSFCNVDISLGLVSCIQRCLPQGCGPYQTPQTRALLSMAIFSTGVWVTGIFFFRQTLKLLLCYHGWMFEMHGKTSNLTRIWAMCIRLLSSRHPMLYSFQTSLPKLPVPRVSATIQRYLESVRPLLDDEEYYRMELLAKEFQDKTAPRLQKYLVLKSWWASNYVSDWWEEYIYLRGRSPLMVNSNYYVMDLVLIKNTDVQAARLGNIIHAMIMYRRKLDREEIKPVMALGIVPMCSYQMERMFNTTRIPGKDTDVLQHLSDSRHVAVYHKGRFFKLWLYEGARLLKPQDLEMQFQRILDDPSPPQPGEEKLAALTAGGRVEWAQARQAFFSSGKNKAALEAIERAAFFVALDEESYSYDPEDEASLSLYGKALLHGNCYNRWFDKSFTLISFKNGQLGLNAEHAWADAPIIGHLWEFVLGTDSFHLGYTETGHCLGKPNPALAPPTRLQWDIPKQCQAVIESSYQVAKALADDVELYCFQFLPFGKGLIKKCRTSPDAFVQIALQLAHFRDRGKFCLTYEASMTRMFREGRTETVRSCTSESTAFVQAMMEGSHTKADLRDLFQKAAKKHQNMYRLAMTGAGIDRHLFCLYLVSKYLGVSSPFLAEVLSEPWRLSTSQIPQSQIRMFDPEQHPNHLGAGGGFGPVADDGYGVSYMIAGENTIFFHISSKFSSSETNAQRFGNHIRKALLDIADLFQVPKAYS

[3] = target: Non-structural protein 4b (Hepacivirus hominis, UniProt F5B4I0); experiment: Inhibition of Hepatitis C virus genotype 1a NS4B
[4] = target: Palmitoyltransferase ZDHHC3 (Homo sapiens, UniProt Q9NYG2); experiment: Inhibition of ZDHHC3 (unknown origin)
[5] = target: Palmitoyltransferase ZDHHC7 (Homo sapiens, UniProt Q9NXF8); experiment: Inhibition of ZDHHC7 (unknown origin)
[6] = target: T2, Protein-cysteine N-palmitoyltransferase HHAT (Homo sapiens, UniProt Q5VTY9); experiment: Inhibition of HHAT (unknown origin)
NCI-H226 [7] = experiment: Antitumor activity against human NCI-H226 cells xenografted in CDX mouse model assessed as reduction in tumor growth at 30 mg/kg relative to control; type: functional; set-up: scale not given: the % may be the effect or the level left
[8] = target: Transcriptional enhancer factor TEF-1 (Homo sapiens, UniProt P28347); experiment: Inhibition of N-terminal His-tagged human TEAD1 expressed in Escherichia coli BL21 (DE3) (209 to 424 residues) by affinity chromatography analysis
NCI-H226 [9] = experiment: Antitumor activity against human NCI-H226 cells xenografted in CDX mouse model assessed as reduction in tumor growth at 75 mg/kg relative to control; type: functional; set-up: scale not given: the % may be the effect or the level left
LN-18 = experiment: Antitumor activity against human LN-18 cells assessed as reduction in cell growth incubated for 72 hrs in presence of sirtuins inhibitor by crystal violet staining based analysis; type: functional; conditions: LN-18, 72 h
[10] = target: Tyrosine-protein kinase Lck (Homo sapiens, UniProt P06239); experiment: Inhibition of N-terminal human recombinant Lck expressed in baculovirus infected in Sf9 cells
[11] = target: T3, Carnitine O-palmitoyltransferase 1, liver isoform (Rattus norvegicus, UniProt P32198); experiment: Binding affinity to rat liver mitochondria CPT1 assessed as inhibition constant incubated for 3 to 6 mins by Liquid scintillation counting method
T3 sequence (P32198 whole entry): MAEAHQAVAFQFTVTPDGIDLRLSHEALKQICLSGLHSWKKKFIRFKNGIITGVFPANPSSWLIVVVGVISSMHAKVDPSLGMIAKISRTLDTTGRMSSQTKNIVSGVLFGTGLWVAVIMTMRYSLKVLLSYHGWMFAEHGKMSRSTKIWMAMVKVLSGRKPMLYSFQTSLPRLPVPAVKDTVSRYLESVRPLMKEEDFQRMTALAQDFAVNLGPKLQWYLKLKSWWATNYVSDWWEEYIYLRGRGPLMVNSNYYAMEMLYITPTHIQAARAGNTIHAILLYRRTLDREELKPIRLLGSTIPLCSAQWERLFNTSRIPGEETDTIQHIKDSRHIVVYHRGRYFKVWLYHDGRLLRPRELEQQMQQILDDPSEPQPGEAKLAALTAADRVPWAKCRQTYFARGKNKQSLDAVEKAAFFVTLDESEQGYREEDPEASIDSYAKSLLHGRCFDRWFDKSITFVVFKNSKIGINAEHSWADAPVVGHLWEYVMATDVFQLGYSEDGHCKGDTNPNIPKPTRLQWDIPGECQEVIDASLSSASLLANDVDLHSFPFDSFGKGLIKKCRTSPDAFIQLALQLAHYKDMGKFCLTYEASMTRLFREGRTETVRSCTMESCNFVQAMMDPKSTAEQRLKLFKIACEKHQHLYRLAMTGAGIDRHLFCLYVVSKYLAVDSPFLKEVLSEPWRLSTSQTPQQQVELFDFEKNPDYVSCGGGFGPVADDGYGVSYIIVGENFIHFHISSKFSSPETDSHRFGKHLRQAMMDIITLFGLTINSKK

Homo sapiens = species: Homo sapiens; experiment: Inhibition of ZDHHC (unknown origin) at 20 uM relative to control
MCF7 = experiment: Antiproliferative activity against human MCF7 cells assessed as reduction in cell growth measured after 72 hrs by MTT assay; type: functional, cell-based; conditions: MCF7, 72 h
[12] = Inhibition of Candida albicans serine palmitoyltransferase
[13] = target: Serine palmitoyltransferase small subunit B (Homo sapiens, UniProt Q8NFR3); experiment: Inhibition of SPTSSB (unknown origin) expressed in HEK293T cells; type: cell-based
[14] = target: T2, Protein-cysteine N-palmitoyltransferase HHAT; experiment: Inhibition of His-tagged HHAT (unknown origin) transfected in HEK293FT cells; type: cell-based
[15] = Inhibition of N-terminal 6His-tagged human TEAD1 YAP-binding domain (219 to 435 residues) expressed in Escherichia coli BL21 (DE3)
[16] = target: Carnitine O-palmitoyltransferase 2, mitochondrial (Homo sapiens, UniProt P23786); experiment: Inhibition of human CPT2
[17] = target: T4, Carnitine O-palmitoyltransferase 1, liver isoform (Homo sapiens, UniProt P50416); experiment: Inhibition of human CPT1
T4 sequence (P50416 whole entry): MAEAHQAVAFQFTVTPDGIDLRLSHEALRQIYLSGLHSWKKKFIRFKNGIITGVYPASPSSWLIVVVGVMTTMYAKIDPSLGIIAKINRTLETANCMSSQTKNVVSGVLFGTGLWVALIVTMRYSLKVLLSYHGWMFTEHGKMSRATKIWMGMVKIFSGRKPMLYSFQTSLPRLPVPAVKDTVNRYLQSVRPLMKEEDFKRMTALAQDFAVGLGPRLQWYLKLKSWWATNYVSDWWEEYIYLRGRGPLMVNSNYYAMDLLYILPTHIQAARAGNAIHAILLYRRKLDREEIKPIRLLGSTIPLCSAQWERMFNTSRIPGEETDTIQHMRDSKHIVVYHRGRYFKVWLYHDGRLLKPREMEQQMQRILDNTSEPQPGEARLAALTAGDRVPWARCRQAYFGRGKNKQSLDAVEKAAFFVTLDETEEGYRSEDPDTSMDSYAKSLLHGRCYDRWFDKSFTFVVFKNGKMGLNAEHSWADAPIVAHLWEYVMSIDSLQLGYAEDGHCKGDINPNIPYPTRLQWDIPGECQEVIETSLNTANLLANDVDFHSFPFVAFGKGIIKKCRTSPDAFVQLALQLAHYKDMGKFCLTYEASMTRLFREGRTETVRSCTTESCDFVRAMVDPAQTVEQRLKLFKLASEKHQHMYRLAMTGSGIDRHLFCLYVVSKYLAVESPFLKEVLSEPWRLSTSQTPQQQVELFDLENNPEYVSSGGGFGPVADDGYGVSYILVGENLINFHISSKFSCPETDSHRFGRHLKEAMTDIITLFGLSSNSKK

T2 sequence (Q5VTY9 whole entry): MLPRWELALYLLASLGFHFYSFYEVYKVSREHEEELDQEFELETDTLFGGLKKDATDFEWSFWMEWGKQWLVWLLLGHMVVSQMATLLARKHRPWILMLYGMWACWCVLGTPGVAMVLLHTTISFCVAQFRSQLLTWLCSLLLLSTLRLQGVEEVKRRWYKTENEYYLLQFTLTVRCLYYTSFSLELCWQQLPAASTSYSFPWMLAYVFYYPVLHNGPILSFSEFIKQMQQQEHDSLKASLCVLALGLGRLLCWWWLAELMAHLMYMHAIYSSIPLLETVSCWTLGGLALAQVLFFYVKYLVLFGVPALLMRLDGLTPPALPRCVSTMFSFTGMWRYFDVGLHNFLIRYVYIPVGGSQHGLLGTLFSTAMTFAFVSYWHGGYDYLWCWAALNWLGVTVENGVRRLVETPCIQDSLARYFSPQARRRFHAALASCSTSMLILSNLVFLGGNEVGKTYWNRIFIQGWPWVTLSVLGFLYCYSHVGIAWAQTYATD
Sequence of Serine palmitoyltransferase small subunit B (Q8NFR3 whole entry): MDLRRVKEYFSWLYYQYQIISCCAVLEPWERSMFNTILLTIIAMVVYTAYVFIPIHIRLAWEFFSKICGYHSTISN
Sequence of Tyrosine-protein kinase Lck (P06239 whole entry, canonical isoform): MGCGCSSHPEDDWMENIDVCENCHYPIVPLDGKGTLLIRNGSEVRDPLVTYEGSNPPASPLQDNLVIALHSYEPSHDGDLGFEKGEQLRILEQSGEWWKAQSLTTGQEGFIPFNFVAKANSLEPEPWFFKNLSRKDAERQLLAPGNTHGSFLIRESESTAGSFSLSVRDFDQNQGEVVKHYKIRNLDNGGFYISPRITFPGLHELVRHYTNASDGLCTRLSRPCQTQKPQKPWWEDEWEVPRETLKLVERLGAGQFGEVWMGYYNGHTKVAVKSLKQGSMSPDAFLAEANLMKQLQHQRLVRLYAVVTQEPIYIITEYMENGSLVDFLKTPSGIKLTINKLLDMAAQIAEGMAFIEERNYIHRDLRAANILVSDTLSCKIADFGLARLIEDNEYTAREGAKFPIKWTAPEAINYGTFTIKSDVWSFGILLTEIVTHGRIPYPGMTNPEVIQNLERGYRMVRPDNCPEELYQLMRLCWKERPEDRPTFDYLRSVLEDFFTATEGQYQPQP
Sequence of Non-structural protein 4b (F5B4I0 whole entry): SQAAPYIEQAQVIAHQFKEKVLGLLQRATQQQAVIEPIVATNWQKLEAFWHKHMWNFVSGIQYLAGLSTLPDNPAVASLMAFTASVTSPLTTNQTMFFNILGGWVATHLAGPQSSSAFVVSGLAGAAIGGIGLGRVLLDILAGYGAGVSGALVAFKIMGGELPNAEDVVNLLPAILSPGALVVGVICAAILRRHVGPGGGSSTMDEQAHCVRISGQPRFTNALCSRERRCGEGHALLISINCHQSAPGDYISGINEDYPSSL
Sequence of Transcriptional enhancer factor TEF-1 (P28347 whole entry, the tested form may be a part): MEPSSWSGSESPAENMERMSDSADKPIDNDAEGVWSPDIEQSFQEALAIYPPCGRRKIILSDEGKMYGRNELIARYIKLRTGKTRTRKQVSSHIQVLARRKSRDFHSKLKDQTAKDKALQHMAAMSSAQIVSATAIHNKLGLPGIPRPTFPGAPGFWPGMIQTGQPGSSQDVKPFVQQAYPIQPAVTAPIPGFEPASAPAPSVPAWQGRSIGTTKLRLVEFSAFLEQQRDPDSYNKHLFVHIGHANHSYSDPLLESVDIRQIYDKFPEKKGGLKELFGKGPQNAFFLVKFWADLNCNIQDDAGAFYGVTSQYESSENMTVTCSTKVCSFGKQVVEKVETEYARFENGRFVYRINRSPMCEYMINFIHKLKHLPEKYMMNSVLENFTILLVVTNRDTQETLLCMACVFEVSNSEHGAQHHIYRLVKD
Sequence of Palmitoyltransferase ZDHHC7 (Q9NXF8 whole entry): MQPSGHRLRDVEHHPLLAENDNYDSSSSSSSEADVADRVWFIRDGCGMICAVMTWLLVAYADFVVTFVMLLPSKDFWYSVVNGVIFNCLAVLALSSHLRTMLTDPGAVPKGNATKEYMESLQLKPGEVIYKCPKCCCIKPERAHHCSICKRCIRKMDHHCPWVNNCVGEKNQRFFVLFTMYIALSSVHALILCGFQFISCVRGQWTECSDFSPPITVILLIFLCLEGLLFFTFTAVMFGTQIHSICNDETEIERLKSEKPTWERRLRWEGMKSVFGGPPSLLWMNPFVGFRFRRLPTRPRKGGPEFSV
Sequence of Palmitoyltransferase ZDHHC3 (Q9NYG2 whole entry): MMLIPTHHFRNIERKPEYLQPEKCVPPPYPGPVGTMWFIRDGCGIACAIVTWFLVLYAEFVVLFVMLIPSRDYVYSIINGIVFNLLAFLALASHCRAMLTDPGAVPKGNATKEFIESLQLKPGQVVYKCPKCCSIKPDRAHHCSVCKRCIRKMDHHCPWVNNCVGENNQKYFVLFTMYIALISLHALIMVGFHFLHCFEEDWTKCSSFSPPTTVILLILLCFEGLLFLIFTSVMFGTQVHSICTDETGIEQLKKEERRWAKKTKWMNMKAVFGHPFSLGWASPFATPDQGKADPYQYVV
Sequence of Carnitine O-palmitoyltransferase 2, mitochondrial (P23786 whole entry, canonical isoform): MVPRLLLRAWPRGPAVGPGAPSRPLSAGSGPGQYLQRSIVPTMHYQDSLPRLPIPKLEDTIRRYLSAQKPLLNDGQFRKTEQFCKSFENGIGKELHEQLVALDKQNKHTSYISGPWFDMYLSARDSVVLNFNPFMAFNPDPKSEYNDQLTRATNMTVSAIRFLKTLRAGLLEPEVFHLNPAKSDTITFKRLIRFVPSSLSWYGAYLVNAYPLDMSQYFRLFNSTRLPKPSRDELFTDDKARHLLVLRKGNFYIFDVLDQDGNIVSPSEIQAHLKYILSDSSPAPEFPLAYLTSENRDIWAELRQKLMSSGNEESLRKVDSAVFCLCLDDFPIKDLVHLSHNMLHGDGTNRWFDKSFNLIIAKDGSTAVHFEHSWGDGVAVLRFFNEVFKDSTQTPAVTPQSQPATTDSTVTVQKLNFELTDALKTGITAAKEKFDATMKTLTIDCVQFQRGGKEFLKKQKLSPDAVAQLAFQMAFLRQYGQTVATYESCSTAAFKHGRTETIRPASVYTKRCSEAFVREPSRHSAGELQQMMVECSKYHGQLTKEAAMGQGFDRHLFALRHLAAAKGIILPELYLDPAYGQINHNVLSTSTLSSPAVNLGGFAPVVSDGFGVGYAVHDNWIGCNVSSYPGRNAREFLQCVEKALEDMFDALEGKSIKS

Compound: CC#CCOc1ccc(C[C@H](NC(=O)[C@@H](/C=C/CCCCCCC(=O)CCCCCCC)[C@@](O)(CC(C)=O)C(=O)O)C(=O)O)cc1
IC50 [3]: 0.0189 µM

Compound: CCCCCCCCCCCCCCC(Br)C(=O)SCCNC(C)=O (stereo not given)
IC50 [4]: ~50 µM
IC50 [5]: 4.4 µM

Compound: CC(C)(C)NC1CCN(c2cc(NCc3ccc(Cl)cc3)nc3ccccc23)CC1 [EZURPIMTROSTAT]
IC50 (LN-18): 0.22 µM

Compound: CCCCCCCCCCCCCCC(Br)C(=O)O (stereo not given)
IC50 [10]: 10 µM

Compound: CCCCCCCCCCCCCCCC1(O)C[C@H](CC(=O)[O-])C[N+](C)(C)C1 (single isomer, unassigned)
Ki [11]: 4.2 µM

Compound: C=CC(=O)NCc1ccc(OC(=O)c2cccc(Oc3ccccc3)c2)cc1
inhibition (Homo sapiens): 89.5%
IC50 (MCF7): 50 µM

Compound: CCCCCCCC(=O)CCCCCC/C=C/[C@H](C(=O)N[C@@H](Cc1ccc(O)cc1)C(=O)O)[C@@](O)(CC(=O)O)C(=O)O
IC50 [12]: 0.022 µM

Compound: CC(C)=CCC[C@]1(C)C=Cc2c(O)c3c(c(CC=C(C)C)c2O1)O[C@]12C(=C[C@@H]4C[C@H]1C(C)(C)O[C@@]2(C/C=C(/C)C(=O)O)C4=O)C3=O [GAMBOGIC ACID]
IC50 [13]: 2.18 µM

Further lines, with some results ahead:

half-life [1]: 13.2 h
Compound: CNS(=O)(=O)c1ccc(Nc2ccc(C(F)(F)F)cc2)c(-c2cn(C)cn2)c1

IC50 [2]: 16.8 µM
Compound: COc1ccc(CN2CCN(CCCSc3cc(C(C)(C)C)c(O)c(C(C)(C)C)c3)CC2)c(OC)c1OC

IC50 [6]: 0.46 µM
Compound: CCC(C)CNCC(=O)N1CCc2sccc2C1c1cccc(C)c1 (stereo not given)

IC50 [8]: 0.011 µM
Compound: C=C(F)C(=O)N1C[C@@H](Nc2ncccn2)[C@H](OCc2ccc(C(F)(F)F)cc2)C1
Activity (NCI-H226 [7]): 54%
Activity (NCI-H226 [9]): 68%

IC50 [14]: 0.18 µM
Compound: C=CCNCC(=O)N1CCc2sccc2C1COc1ccc(Cl)c(C)c1 (stereo not given)

IC50 [15]: 0.16 µM
Compound: C=CC(=O)N1CCCN(CCCOCc2ccccc2)C1

IC50 [16]: > 100 µM
IC50 [17]: 250 µM
Compound: COc1cccc2c1C(=O)c1c(O)c3c(c(O)c1C2=O)C[C@@](O)(C(=O)CO)C[C@@H]3O[C@H]1C[C@H](N)[C@H](O)[C@H](C)O1 [DOXORUBICIN HYDROCHLORIDE]
